Results taken from US20020091095A1, “Modulation of Fas and FasL expression” (priority 1999, published 2002).

Experiments:
[1] = system: FasL; assay: FasL expression at the cell surface by flow cytometry, PBMCs; format: cell-based, human; details: 100 μg/ml sequence, 48 h, treated vs control cells
Protocol: (§1) Peripheral blood mononuclear cells (hereinafter, “PBMCs”) were isolated from human blood by Ficoll-Hypaque (Amersham Pharmacia Biotech, Baie d'Urfée, Québec, Canada) density gradient centrifugation.
(§2) Cancer cells and PBMCs were seeded in 6 well flat-bottom microplates and were maintained at 37° C. in a 5% CO2 atmosphere. Unless stated otherwise, 2×10^5 cells/ml were incubated for 48 h with 0 μg/ml (control) or 100 μg/ml ([…]) (treated) of the sequences.
(§3) Fas and FasL expression were measured by flow cytometry using anti-Fas FITC-conjugated monoclonal antibodies and anti-FasL PE-conjugated monoclonal antibodies in a FACScalibur Flow Cytometer (Becton Dickinson, San Jose, Calif., USA) using the CELLQuest program (Becton Dickinson).
(§4) Results are expressed as percentage (%) increase in the expression of Fas and of FasL measured on treated cells compared to control cells.

[2] = system: Fas; assay: Fas expression at the cell surface by flow cytometry, MCF-7 cells; format: cell-based, human; details: MCF-7 breast cancer cells, 100 μg/ml sequence, 48 h, treated vs control cells
Protocol: as §2, §3, §4
(§5) MCF-7 human breast cancer cells are a caspase-3 negative, estrogen-dependent human solid tumor model.

[3] = system: FasL; assay: FasL expression at the cell surface by flow cytometry, OVCAR-3 cells; format: cell-based, human; details: OVCAR-3 ovarian cancer cells, 100 μg/ml sequence, 48 h, treated vs control cells
Protocol: as §2, §3, §4
(§6) OVCAR-3 ovarian cancer cells are a p53 mutated, p21/waf-1/Cip deleted, metastatic human solid tumor model.

[4] = system: FasL; assay: FasL expression at the cell surface by flow cytometry, UMUC-3 cells; format: cell-based, human; details: UMUC-3 bladder cancer cells, 100 μg/ml sequence, 48 h, treated vs control cells
Protocol: as §2, §3, §4
(§7) UMUC-3 bladder cancer cells are a P-glycoprotein overexpressing human cell line.

[5] = system: Fas; assay: Fas expression at the cell surface by flow cytometry, Jurkat cells; format: cell-based; details: Jurkat human leukemia T cells, 100 μg/ml sequence, 48 h, treated vs control cells
Protocol: as §2, §3, §4
(§8) Jurkat human leukemia T cells are an atypical multi-drug resistant human suspension tumor cell model.

[6] = system: FasL; assay: FasL expression at the cell surface by flow cytometry, Jurkat cells; format: cell-based; details: Jurkat human leukemia T cells, 100 μg/ml sequence, 48 h, treated vs control cells
Protocol: as §2, §3, §4, §8

[7] = system: Fas; assay: Fas expression at the cell surface by flow cytometry, T-24 cells; format: cell-based, human; details: T-24 bladder cancer cells, 100 μg/ml sequence, 48 h, treated vs control cells
Protocol: as §2, §3, §4
(§9) T-24 bladder cancer cells are a p53 mutated human cell line T-24 cells (1.0×10^5 cells/ml) were incubated with the 6 base sequences shown in Table 4.

[8] = system: FasL; assay: FasL expression at the cell surface by flow cytometry, T-24 cells; format: cell-based, human; details: T-24 bladder cancer cells, 100 μg/ml sequence, 48 h, treated vs control cells
Protocol: as §2, §3, §4, §9

[9] = system: FasL; assay: FasL expression at the cell surface by flow cytometry, LNCaP cells; format: cell-based, human; details: LNCaP prostate cancer cells, 100 μg/ml sequence, 48 h, treated vs control cells
Protocol: as §2, §3, §4
(§10) LNCaP prostate cancer cells are a TGF-beta 1 receptor negative, […], metastatic human solid tumor model.

[10] = system: Fas; assay: Fas expression at the cell surface by flow cytometry, SK-OV-3 cells; format: cell-based, human; details: SK-OV-3 ovarian cancer cells, 100 μg/ml sequence, 48 h, treated vs control cells
Protocol: as §2, §3, §4
(§11) SK-OV-3 ovarian cancer cells are a p53 mutated, p21/waf-1/Cip deleted, p15^ink4B,p16^ink4 deleted metastatic human solid tumor model.

[11] = system: Fas; assay: Fas expression at the cell surface by flow cytometry, PBMCs; format: cell-based, human; details: 100 μg/ml sequence, 48 h, treated vs control cells
Protocol: as §1, §2, §3, §4

[12] = system: FasL; assay: FasL expression at the cell surface by flow cytometry, SK-OV-3 cells; format: cell-based, human; details: SK-OV-3 ovarian cancer cells, 100 μg/ml sequence, 48 h, treated vs control cells
Protocol: as §2, §3, §4, §11

[13] = system: Fas; assay: Fas expression at the cell surface by flow cytometry, LNCaP cells; format: cell-based, human; details: LNCaP prostate cancer cells, 100 μg/ml sequence, 48 h, treated vs control cells
Protocol: as §2, §3, §4, §10

[14] = system: Fas; assay: Fas expression at the cell surface by flow cytometry, OVCAR-3 cells; format: cell-based, human; details: OVCAR-3 ovarian cancer cells, 100 μg/ml sequence, 48 h, treated vs control cells
Protocol: as §2, §3, §4, §6

[15] = system: Fas; assay: Fas expression at the cell surface by flow cytometry, UMUC-3 cells; format: cell-based, human; details: UMUC-3 bladder cancer cells, 100 μg/ml sequence, 48 h, treated vs control cells
Protocol: as §2, §3, §4, §7

[16] = system: FasL; assay: FasL expression at the cell surface by flow cytometry, MCF-7 cells; format: cell-based, human; details: MCF-7 breast cancer cells, 100 μg/ml sequence, 48 h, treated vs control cells
Protocol: as §2, §3, §4, §5

Sequence | % INCREASE FasL [1] | % INCREASE Fas [2] | % INCREASE FasL [3] | % INCREASE FasL [4] | % INCREASE Fas [5] | % INCREASE FasL [6] | % INCREASE Fas [7] | % INCREASE FasL [8] | % INCREASE FasL [9] | % INCREASE Fas [10] | % INCREASE Fas [11] | % INCREASE FasL [12] | % INCREASE Fas [13] | % INCREASE Fas [14] | % INCREASE Fas [15] | % INCREASE FasL [16]
AAGTAA [SEQ ID NO:7] | −26% | 12% | −2% | −1% | −4% | −21% | 16% | −10% | −16% | −12% | 13% | −22% | 0% | 16% | 6% | 21%
ATGTAT [SEQ ID NO:10] | 457% | 129% | 114% | 95% | 246% | 393% | 90% | 150% | 68% | 34% | 377% | 33% | 44% | 93% | 42% | 214%
CCGTCC [SEQ ID NO:8] | 1147% | 200% | 95% | 149% | 107% | 151% | 282% | 459% | 311% | 58% | 1046% | 32% | 0% | 83% | 55% | 322%
CTGTCT [SEQ ID NO:11] | 476% | 73% | 93% | 156% | 203% | 413% | 107% | 165% | 55% | 15% | 310% | 26% | 17% | 52% | 45% | 128%
GGAAGG [SEQ ID NO:14] | 162% | 62% | 1% | 8% | 67% | 88% | 46% | 14% | −4% | −15% | 112% | −31% | 26% | 15% | 1% | 84%
GGCCGG [SEQ ID NO:15] | −29% | 63% | −2% | 58% | 75% | 41% | 56% | 18% | −4% | 0% | 6% | −27% | 12% | 19% | 23% | 78%
GGTGGG [SEQ ID NO:4] | 59% | 106% | 14% | 113% | 61% | 22% | 106% | 29% | 8% | −1% | 57% | −17% | 21% | 41% | 62% | 110%
GGTTGG [SEQ ID NO:13] | −32% | 99% | 10% | 98% | 99% | 86% | 75% | 25% | −3% | 16% | −3% | −3% | 23% | 22% | 47% | 83%
GTGTGT [SEQ ID NO:2] | 99% | 155% | 69% | 154% | 52% | 43% | 93% | 77% | 5% | 60% | 94% | 24% | 34% | 77% | 72% | 135%
TCGTTC [SEQ ID NO:12] | 847% | 56% | 224% | 112% | 121% | 75% | 105% | 74% | 171% | 9% | 597% | −3% | 111% | 126% | 47% | 98%
